Source: patent US20210252025A1, “SYNERGIC PHARMACEUTICAL COMBINATION OF A SELECTIVE INHIBITOR OF CYCLOOXYGENASE-2 AND AN ANTHRAQUINONE DERIVATIVE” (priority 2018, published 2021)

Tests used:
[1] = cited from earlier work
rats = experiment: Assessment of toxic effects (lethality), oral
From the text: In order to determine possible antinociceptive effects and toxic effects, male Wistar rats [Crl:(WI)BR] were employed with a weight of between 180 and 200 g. All the experimental procedures followed the recommendations of the Committee for Research and Ethical Issues of the International Association for the Study of Pain and the Guidelines on Ethical Standards for Investigations of Experiment Pain in Animals. The number of animals for experimentation was kept to a minimum (6 animals per experimental point for antinociceptive effects and 10 animals per experimental point for adverse effects: lethality). The animals were kept in a room with alternating dark/light cycles. Twelve hours before the antinociception experiments, food was withdrawn from the rats, only leaving them free access to water. All the experiments were carried out during the light phase.
In the determinations presented for the individual drugs or drugs in combination, an attempt was made to administer the treatment on a single occasion but, when this was not possible owing to the high concentration and limits of solubility, several administrations were made with 3-hour time intervals. The established doses were always increased in logarithmic units administered orally both for celecoxib and for diacerein.
In the determinations presented below, the treatment was administered on a single occasion and, in the case of celecoxib, high doses in several administrations until the required dose is completed. The established doses were always increased in logarithmic units and administered orally.

[2] = test system: rats with gout induced by intra-articular uric acid; experiment: Pain-induced functional impairment model in the rat (PIFIR model), antinociceptive effects; type: in vivo, male Wistar rats
Experimental: The following compounds were employed: uric acid, celecoxib and diacerein, propylene glycol, carboxymethyl cellulose and mineral oil. The celecoxib and diacerein were dissolved in propylene glycol (5%) and carboxymethyl cellulose.
It started with determining the antinociceptive effects of the individual compounds to then go on to analyze the effects of the combination, employing the “Pain-induced functional impairment model in the rat” (“PIFIR model”). The animals were anesthetized in a glass desiccator, saturated with ether vapor. The gout was induced by applying an intra-articular injection (i.a.) of 0.05 ml of uric acid suspended in mineral oil at 30% in the right hind member, precisely in the femur-tibia-patella joint.
A 1 mL glass syringe with a 4-mm-long No. 22 needle was used for the intra-articular injection. Immediately afterwards, an electrode is attached to each hind paw (of the rats) in the middle of the plantar calluses. The rats were left to recover from the anesthesia and placed in a 30-cm-diameter rotary stainless-steel cylinder. The cylinder was turned at 4 r.p.m., forcing the rats to walk for 2 min every half hour, for a total of 6.5 hours, (2.5 h to generate the arthritis and 4 h for the assessment of antinociceptive effects. The variable measured was the contact time of each one of the rats' hind legs in the cylinder.
First it was decided to determine the range of doses that could form the celecoxib dose/response curve. […] The 50 mg/kg dose of diacerein has been determined to be a proper dose in the preclinical stage to be employed in combination and be able to determine if changes are produced in the antinociceptive effects.
Thus, the possible antinociceptive effects of both the individual and the combined forms of the compounds were determined and analyzed using animals with gout in the experimental model of Pain-induced functional impairment model in the rat. […]
After the uric acid was administered to the joint to produce the gout type impairment and alteration, there was a wait of 2.5 hours for the total impairment to be produced (the symptoms of gout were already complete at 2.5 hours after the uric acid was administered). This time (2.5 hours after the administration of the uric acid) was considered to be “0” time, for administering the treatment, at this moment, with the individual drugs and the drugs in combined form, followed by the temporary courses of each treatment being determined for the following 4 hours. […]
From the afore-described that corresponds to the experimental model of preclinical analysis of this combination of celecoxib with diacerein whose protection is being sought, the following results were obtained: The data are expressed as a percentage Functionality Index (FI %). […]

## Cc1ccc(-c2cc(C(F)(F)F)nn2-c2ccc(S(N)(=O)=O)cc2)cc1 [celecoxib, 4-[5-(4-methylphenyl)-3-(trifluoromethyl)-1H-pyrazol-1-yl]benzenesulfonamide]
[1]; in vivo
  binding to plasma proteins: 97%
[1]; oral
  time to maximum plasma concentration: around 3 hours
rats; oral, rats, 24 h post-treatment, FIG. 7
  dose that starts to generate effects of lethality at 24 hours: 17800 mg/kg
rats; oral, rats, 48 h post-treatment, FIG. 8
  dose that starts to generate effects of lethality at 48 hours: 10000 mg/kg
rats; oral, rats, 72 h post-treatment, FIG. 9
  dose that starts to generate effects of lethality at 72 hours: 5600 mg/kg
[2]; celecoxib by itself, oral, acute administration, doses 3.2 to 1000 mg/kg, 4 h assessment, mean ± standard error, FIG. 2
  maximum antinociceptive effectiveness (AUC of temporary courses, DRC): 191.9±27.2 au
[2]; oral, acute administration, 4 h, celecoxib 3.2 to 1000 mg/kg alone or with diacerein 50 mg/kg
  temporary courses of antinociceptive effect (FI %), dose dependence: dose-dependent antinociceptive effects
[2]; oral, chronic (7 days) vs acute form
  antinociceptive effects of chronic treatment compared with acute administration: better antinociceptive effects

## CC(=O)Oc1cccc2c1C(=O)c1c(OC(C)=O)cc(C(=O)O)cc1C2=O [diacerein, 4,5-Bis(acetyloxy)-9,10-dihydro-9,10-dioxo-2-anthracenecarboxylic acid]
rats; male, Wistar [Crl:(WI)BR], rat, in vivo, po, 48 h
  dose that starts to generate effects of lethality at 48 hours: 1800 mg/kg
rats; male, Wistar [Crl:(WI)BR], rat, in vivo, po, 72 h
  dose that starts to generate effects of lethality at 72 hours: 1000 mg/kg
rats; oral, rats, relative to the DRC of celecoxib by itself
  position of the DRC for the effects of lethality: more to the left of that of celecoxib
[2]; 50 mg/kg oral doses, 4 h of assessment
  antinociceptive effect (recovery of FI %): did not show any antinociceptive effect whatsoever
